Experimental data published in patent publication US20040186166A1, “Cannabinoid analogs as peroxisome proliferator activated nuclear receptor gamma activators” (priority 2002, published 2004).

Legend:
CB2 = CB2 (Homo sapiens, UniProt P34972); details: Recht et al. 2001; cited from earlier work
human PPARδ = molecular target: T1, human PPARδ (Homo sapiens, UniProt Q03181); experiment: Gal4-dependent MH100-Luc reporter, human PPARδ; assay type: cell-based
T1 construct: The Gal4-hPPAR LBD constructs were obtained from GlaxoSmithKline; host or cells: HEK293
T1 sequence (Q03181 211-439 limits assumed): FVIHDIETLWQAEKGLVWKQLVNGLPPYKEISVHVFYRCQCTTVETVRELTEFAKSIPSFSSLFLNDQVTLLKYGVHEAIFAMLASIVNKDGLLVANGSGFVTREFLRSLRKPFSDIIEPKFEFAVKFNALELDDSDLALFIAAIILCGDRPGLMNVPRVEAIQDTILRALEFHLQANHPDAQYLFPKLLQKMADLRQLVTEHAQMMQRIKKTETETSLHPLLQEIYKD
Method: (§1) The pGEX-DRIP205 (527˜970) was obtained from the Sloan-Kettering Cancer Center. The Gal4-hPPAR LBD constructs were obtained from GlaxoSmithKline, Research Triangle Park, NC. The IL8-Luciferase reporter was obtained from Celgene, San Diego, Calif. The plasmids mPPARα, mPPARγ1, mPPARδ , and hRXRα were in the pCMX vector (Umesono et al., Cell 65:1255-1266, 1991).
(§2) For PPARγ activation assay, HEK293 cells were plated in 12-well cell culture plates and maintained in Dulbecco's modified Eagle's medium (DMEM) supplemented with 10% fetal bovine serum (FBS) at 37° C. under 5% CO2. […] The average normalized luciferase activity was determined via triplicate experiments. […]
(§3) To further confirm activation of PPARγ by AJA, and also to determine PPARγ species specificity, the ability of AJA to activate the chimeric Gal4-DBD/PPAR fusion proteins on a Gal4-dependent MH100-Luc reporter was assessed (FIG. 4A). The PPARs were expressed as Gal4 DBD fusion proteins, which bind to the UAS promoter containing 4 copies of a synthetic Gal4 binding site upstream of the minimal thymidine kinase (TK) promoter. […] Transfected cells were treated with increasing concentrations of AJA from 10-60 μM and the luciferase activities were determined in triplicate experiments. […]

human PPARγ = molecular target: T2, human PPARγ (Homo sapiens, UniProt P37231); experiment: Gal4-dependent MH100-Luc reporter, human PPARγ; assay type: cell-based; details: compared with mouse PPARγ
T2 construct: The Gal4-hPPAR LBD constructs were obtained from GlaxoSmithKline; host or cells: HEK293
T2 sequence (P37231 238-503 limits assumed): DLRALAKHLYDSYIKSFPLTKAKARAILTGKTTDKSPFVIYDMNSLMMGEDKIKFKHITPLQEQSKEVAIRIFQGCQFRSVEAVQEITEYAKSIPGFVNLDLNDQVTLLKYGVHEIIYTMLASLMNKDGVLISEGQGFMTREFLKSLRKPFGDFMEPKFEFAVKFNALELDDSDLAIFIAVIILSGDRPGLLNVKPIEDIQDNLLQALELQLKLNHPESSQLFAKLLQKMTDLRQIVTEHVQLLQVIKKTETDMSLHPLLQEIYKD
Method: as §1, §2, §3

human IL-8 promoter [1] = experiment: IL-8 promoter luciferase assay, HeLa cells with wild type PPARγ; assay type: cell-based
Method: (§4) For PPARγ activation assay, HEK293 cells were plated in 12-well cell culture plates and maintained in Dulbecco's modified Eagle's medium (DMEM) supplemented with 10% fetal bovine serum (FBS) at 37° C. under 5% CO2. Cells were changed to phenol red-free DMEM supplemented with 10% charcoal-stripped fetal bovine serum 3 hours before transfection by a standard calcium-phosphate precipitation method. Twelve hours after transfection, the cells were washed with phosphate-buffered saline (PBS) and fed again with fresh medium containing the indicated concentrations of compounds. After 36 hours, cells were harvested for β-galactosidase and luciferase activities as described previously (Li et al., Proc Natl Acad Sci USA 94:8479-84, 1997). The average normalized luciferase activity was determined via triplicate experiments. For IL-8 promoter assay, HeLa cells were maintained and transfected in the same way as described above. After transfection, cells were recovered for 4 hours before treatment with AJA, GW347845, or solvent. After 3-4 hours, cells were treated with or without 25 nM of phorbol myristate acetate (PMA) for 24 hours.
The IL-8 luciferase reporter controlled by the human IL-8 promoter (-97/-69) was cotransfected with mPPARγ or mPPARγ ΔAF2 mutant into HeLa cells. After transfection, cells were treated with AJA, GW347845 or solvent after PMA treatment for 24 hours. This was performed by determining the effect of AJA on IL-8 promoter activity and the role of PPARγ in this process. IL-8 is a biomarker for inflammation, and reduction of IL-8 levels correlates with a decrease in inflammation. The involvement of PPARγ in regulating IL-8 promoter activity was determined by comparing the IL-8 promoter activity in the presence of wild type PPARγ or its ΔAF2 mutant. In the experiment illustrated in FIG. 6A, PMA stimulated IL-8 promoter activity 3 fold, which was set as 100% promoter activity.

human IL-8 promoter [2] = experiment: IL-8 promoter luciferase assay, HeLa cells with PPARγ ΔAF2 mutant; assay type: cell-based; details: cells transfected with PPARγ ΔAF2 mutant
Method: as §4, with “After 3-4 hours, cells were treated with or without 25 nM of phorbol myristate acetate (PMA) for 24 hours.” left out
The IL-8 luciferase reporter controlled by the human IL-8 promoter (-97/-69) was cotransfected with mPPARγ or mPPARγ ΔAF2 mutant into HeLa cells. […] The involvement of PPARγ in regulating IL-8 promoter activity was determined by comparing the IL-8 promoter activity in the presence of wild type PPARγ or its ΔAF2 mutant. […]

CB2, sequence (P34972 whole entry, species assumed, the tested form may be a part): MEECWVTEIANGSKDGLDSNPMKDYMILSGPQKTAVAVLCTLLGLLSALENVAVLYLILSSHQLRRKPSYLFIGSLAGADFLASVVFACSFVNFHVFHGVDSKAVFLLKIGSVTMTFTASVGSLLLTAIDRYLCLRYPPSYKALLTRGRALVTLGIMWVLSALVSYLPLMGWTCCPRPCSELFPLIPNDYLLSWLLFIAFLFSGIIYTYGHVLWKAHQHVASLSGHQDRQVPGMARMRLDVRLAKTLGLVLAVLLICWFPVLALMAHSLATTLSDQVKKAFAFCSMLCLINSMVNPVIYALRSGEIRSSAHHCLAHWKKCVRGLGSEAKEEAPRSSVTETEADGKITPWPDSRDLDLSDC

Question: Which “affinity to CB2” value (CB2) does the source give for CCCCCCC(C)(C)c1cc(O)c2c(c1)OC(C)(C)[C@@H]1CC=C(C(=O)O)C[C@@H]21 [AJA, dimethylheptyl-THC-11-oic acid] here?
Answer: modest affinity

Question: What about the “activation of human PPARδ” value (human PPARδ) of the same molecule?
Answer: did not activate

Question: And the “activation of human PPARγ” value (human PPARγ)?
Answer: activates human PPARγ as efficiently as mouse PPARγ

Question: What about the “reduction of PMA-stimulated IL-8 promoter activity” value (human IL-8 promoter [1]; 20 μM, HeLa cells) of the same molecule?
Answer: about 40%

Question: What about the “significance of the reduction of IL-8 promoter activity” value (human IL-8 promoter [1]; 10 and 20 μM AJA) of the same molecule?
Answer: statistically significant

Question: What about the “effect on IL-8 promoter activity” value (human IL-8 promoter [2]) of the same molecule?
Answer: no effect
